Assay results published in patent US20130225545A1, “PORPHYRIN TREATMENT OF NEURODEGENERATIVE DISEASES” (priority 2010, published 2013).
“Also recorded” adds a separate entry of the source.

Experiments:
mice [1] = assay: Accelerating rotarod test after 7 days of dosing; details: 15 mg/kg i.p. daily for 7 days; 3-4 h after last injection
Method: (§1) FIG. 15. The histograms of FIGS. 15A-15C appear in the order (left to right): control; MnCl2; AEOL 11114; AEOL 11207; AEOL 11203. Behavioral testing after dosing mice with AEOL11207, AEOL11114B or AEOL11203 (MnCl2 positive control). Mice (6 per group) were divided 5 groups treated with AEOL11207, AEOL11203, AEOL11114B, MnCl2 (all compound dissolved in 5% DMSO) or 5% DMSO alone by 15 mg/kg i.p. daily for a period of 7 days. At the end of treatment, mice were performed the behavioral tests by open field and accelerating rotorod test in 3-4 h after last injection. The total moving distance (FIG. 15A), moving velocity (FIG. 15B) in 5 minutes measured by open field test and the latency (seconds) from acceleration to fall from the rod (FIG. 15C) in the mice 7 days after injection of vehicle, MnCl2, AEOL11114, AEOL11207 and AEOL11203 i.p. (15 mg/kg daily). Bars represent mean+S.E.M. One-way, ANOVA, n=6-8 mice per group.
Motor behavior assessment by accelerating rotarod test follows the protocol of Hamm et al. (Ferret et al., Hepatology 33:1173-1180, 2001). Rotarod test is performed by using an automated rotarod (Ugo Basile, Comerio, Italy) after AEOLs or vehicle injections. Animals are tested two consecutive daily trials (1 hour apart) with an accelerating mode (15, 20, 25, 30, 35 and 40 rpm) in 240 seconds for total 5 days. The average latency to fall from the rod will be recorded. […]

mice [2] = assay: Open field test after 7 days of dosing; details: 15 mg/kg i.p. daily for 7 days; 3-4 h after last injection
Method: as §1
Open field test: The test is performed in mice treated with AEOL compounds or vehicle. The assessment is conducted over 2-4 days in a square arena mounted within specially designed sound-proof plexiglass shells. Each day a mouse is placed in the center of the open field arena and allowed to freely move about for 20-60 minutes while being tracked by an automated tracking system. […]

MPTP metabolism = assay: Striatal MPP+ levels 3 h after MPTP (effects on MPTP metabolism); type: in vivo, mice; details: 15 mg/kg i.p. 1 h before MPTP (15 mg/kg s.c.)
From the text: Bars represent mean+S.E.M. n=4-6 mice per group.

[3] = Plasma concentration in C57BL/6 mice after a single dose (15 mg/kg) by the i.p. or p.o. route; type: in vivo; details: for plasma concentration after i.p. administration / plasma concentration after p.o. administration: C57BL/6 mice; for plasma concentration after i.p. administration: single dose 15 mg/kg i.p.; for plasma concentration after p.o. administration: single dose 15 mg/kg p.o.; for bioavailability / pharmacokinetic properties, overall assessment: mice, i.p. and p.o., summary in words
From the text: (§2) Points represent mean±S.E.M. Each point is the average of 3-4 animals.
(§3) Points represent mean+S.E.M. Bars represent mean+S.E.M. n=3-6 mice per group. […] Bars represent mean+S.E.M. n=3-6 mice per group. […] Bars represent mean+S.E.M. #p<0.01 vs MPTP. One-way, ANOVA, n=6 mice per group.
(§4) Points represent mean±S.E.M. Each point is the average of 3-4 animals. […] Bars represent mean+S.E.M. n=6-8 mice per group. […] Bars represent mean+S.E.M. #p<0.01 vs MPTP. One-way, ANOVA, n=6 mice per group.
(§5) Points represent mean+S.E.M. Each point is the average of 4 animals. […] Bars represent mean+S.E.M. n=6 mice per group. […] Bars represent mean+S.E.M. #p<0.01 vs MPTP. One-way, ANOVA, n=6 mice per group.
Points represent mean+S.E.M. Each point is the average of 4 animals.

[4] = Brain concentration in C57BL/6 mice after a single dose (15 mg/kg) by the i.p. or p.o. route; type: in vivo; details: for concentration in the brain after i.p. administration / concentration in the brain, stable for 24 hr after i.p. administration / concentration in the brain for 24 hr after p.o. administration / concentration in the brain after p.o. administration: C57BL/6 mice; for concentration in the brain after i.p. administration / concentration in the brain, stable for 24 hr after i.p. administration: single dose 15 mg/kg i.p.; for concentration in the brain after i.p. administration / concentration in the brain after p.o. administration: result in words; for penetration of the BBB: 15 mg/kg, i.p. (AEOL11216), i.p. and p.o. (AEOL11203, AEOL1114); for concentration in the brain for 24 hr after p.o. administration / concentration in the brain after p.o. administration: single dose 15 mg/kg p.o.
From the text: as §2, §3, §4, §5

MPTP mouse model [5] = assay: Stereological count of TH+ neurons in the substantia nigra pars compacta 7 days after MPTP; type: in vivo, C57BL/6 mice; details: MPTP 15 mg/kg x3 s.c.
Method: as §3
Assessment of tyrosine hydroxylase (TH) neurons: Free-floating […] mesencephalic serial sections will be processed with antibodies against TH for immunohistochemistry (Vector Laboratories) and counterstained with cresyl violet. Total numbers of TH and cresyl violet-stained neurons in SNpc is counted stereologically with STEREO INVESTIGATOR software.
Stereological analysis and TH immunohistochemistry: The 40-μm sections including the whole SN pars compacta (SNpc) from bregma −2.60 to −3.80 mm is immunostained with a rabbit antibody to TH (Chemicon, Temecula, Calif.) using the ABC method (ABC Elite Kit, Vector Laboratories, Burlingame, Calif.). The number of TH-positive neurons is quantified using stereo investigator software (MicroBrightfield, Williston, Vt.) by a previously described method (West, Trends in Neurosciences 22:51-61, 1999; Liang et al., J Neurosci 27:4326-4333, 2007).
Bars represent mean+S.E.M. n=6.

MPTP mouse model [6] = assay: GSH, GSSG, GSH/GSSG and 3NT/Tyr ratios in ventral midbrain/SN 24 hours after MPTP; type: in vivo, C57/B6 mice; details: for protection against MPTP-induced alteration of 3-NT/tyrosine ratio / protection against MPTP-induced alteration of GSH/GSSG: 24 hours after MPTP
From the text: as §3, §4, §5

MPTP mouse model [7] = assay: Dopamine levels in the striata 7 days after injection of MPTP; type: in vivo, C57BL/6 mice; details: for protection against MPTP-induced striatal dopamine depletion: 1 hr prior to MPTP and daily thereafter, MPTP 15 mg/kg x3 s.c., 7 days
From the text: as §3, §4, §5

[8] = Solubility of the compound for dosing; type: physicochemical; details: result in words

Compound	plasma concentration after i.p. administration ([3]; result in words)	concentration in the brain after i.p. administration [4]	penetration of the BBB [4]	concentration in the brain, stable for 24 hr after i.p. administration [4]	solubility [8]	concentration in the brain after p.o. administration [4]	effect on striatal MPP+ levels (MPTP metabolism)	bioavailability / pharmacokinetic properties, overall assessment [3]	protection against MPTP-induced alteration of 3-NT/tyrosine ratio (MPTP mouse model [6]; 15 mg/kg x3 daily i.p.)	protection against MPTP-induced alteration of GSH/GSSG (MPTP mouse model [6]; 15 mg/kg x3 daily i.p.)	protection against MPTP-induced striatal dopamine depletion (MPTP mouse model [7]; 15 mg/kg i.p.)	further results
[Cl][Mn][Cl] [MnCl2]												accelerating rotorod test (latency to fall) versus other groups (mice [1]): no statistically significant differences; open field test (total moving distance, moving velocity) versus other groups (mice [2]): no statistically significant differences
COC(=O)c1c2nc(c(C(F)(F)F)c3ccc([n-]3)c(C(=O)OC)c3nc(c(C(F)(F)F)c4ccc1[n-]4)C=C3)C=C2.[Cl-].[Mn+3] [AEOL11207]							none of the AEOL compounds tested altered the levels of MPP+					
COC(=O)c1ccc(C2=C3C=CC(=N3)C(C(F)(F)F)=c3ccc4[n]3[Mn+][n]3c2ccc3C(C(F)(F)F)=C2C=CC(=N2)C=4c2ccc(C(=O)OC)cc2)cc1 [AEOL1114]			penetrated the BBB	> 200 nM	favorable solubility properties		none of the AEOL compounds tested altered the levels of MPP+	good pharmacokinetic properties, brain penetration, oral bioavailability	significantly protected	significantly protected	statistically significant protection	plasma concentration after i.p. administration [3]: ~20 µM; concentration in the brain for 24 hr after p.o. administration [4]: > 200 nM; protection against MPTP-induced dopaminergic (TH+) neuronal loss in the substantia nigra pars compacta (MPTP mouse model [5]; 15 mg/kg i.p.): prevents MPTP-induced loss of TH+ dopamine neurons; protection against MPTP-induced dopaminergic (TH+) neuronal loss in the substantia nigra pars compacta (MPTP mouse model [5]; 15 mg/kg p.o.): prevents MPTP-induced loss of TH+ dopamine neurons; protection against MPTP-induced alteration of 3-NT/tyrosine ratio (MPTP mouse model [6]; 15 mg/kg x3 daily p.o.): significantly protected; protection against MPTP-induced alteration of GSH/GSSG (MPTP mouse model [6]; 15 mg/kg x3 daily p.o.): significantly protected; efficacy against MPTP-induced oxidative stress, overall assessment (MPTP mouse model [6]; summary in words): efficacy against MPTP-induced oxidative stress; protection against MPTP-induced striatal dopamine depletion (MPTP mouse model [7]; 15 mg/kg p.o.): statistically significant protection
COC(=O)c1ccc(C2=C3C=CC(=N3)C(C=O)=c3ccc4[n]3[Mn+][n]3c(ccc32)C(C=O)=C2C=CC(=N2)C=4c2ccc(C(=O)OC)cc2)cc1 [AEOL11209]	low but achievable	variable and relatively low			a major issue; also recorded: solubility issues	variable and relatively low		unfavorable pharmacokinetic or oral bioavailability; also recorded: poor bioavailability				

More lines, main results first:

plasma concentration after i.p. administration ([3]; result in words)	concentration in the brain after i.p. administration [4]	penetration of the BBB [4]	concentration in the brain, stable for 24 hr after i.p. administration [4]	solubility [8]	concentration in the brain after p.o. administration [4]	Compound	effect on striatal MPP+ levels (MPTP metabolism)	bioavailability / pharmacokinetic properties, overall assessment [3]	protection against MPTP-induced alteration of 3-NT/tyrosine ratio (MPTP mouse model [6]; 15 mg/kg x3 daily i.p.)	protection against MPTP-induced alteration of GSH/GSSG (MPTP mouse model [6]; 15 mg/kg x3 daily i.p.)	protection against MPTP-induced striatal dopamine depletion (MPTP mouse model [7]; 15 mg/kg i.p.)	further results
moderate levels	not reliably detectable					CCCOC(=O)C1=C2C=CC(=N2)C(C(=O)OCCC)=c2ccc3[n]2[Mn][n]2c1ccc2C(C(=O)OCCC)=C1C=CC(=N1)C=3C(=O)OCCC [AEOL11215]		poor bioavailability; also recorded: unfavorable pharmacokinetic or oral bioavailability				plasma concentration after p.o. administration ([3]; result in words): not reliably detected
high plasma concentrations		penetrated the BBB	more than 100 nM			CCCOC(=O)C1=C2C=CC(=N2)C(C(F)(F)F)=c2ccc3[n]2[Mn][n]2c1ccc2C(C(F)(F)F)=C1C=CC(=N1)C=3C(=O)OCCC [AEOL11216]			significantly protected	significantly protected	did not significantly prevent	protection against MPTP-induced dopaminergic (TH+) neuronal loss in the substantia nigra pars compacta (MPTP mouse model [5]; 15 mg/kg i.p.): significantly protected
relative high	good brain bioavailability	penetrated the BBB	> 100 nM	good	good brain bioavailability	COC(=O)C1=C2C=CC(=N2)C(C(=O)OC)=c2ccc3[n]2[Mn+][n]2c1ccc2C(C(=O)OC)=C1C=CC(=N1)C=3C(=O)OC [AEOL11203]	none of the AEOL compounds tested altered the levels of MPP+		significantly protected	significantly protected	statistically significant protection	plasma concentration after p.o. administration [3]: ~5 µM; concentration in the brain for 24 hr after p.o. administration [4]: ~50 nM; efficacy in the MPTP mouse model, overall assessment (MPTP mouse model [7]; summary in words): promising efficacy
relatively low	undetectable			a major issue	undetectable	FC(F)(F)C1=C2C=CC(=N2)C(C(F)(F)F)=c2ccc3[n]2[Mn+][n]2c1ccc2C(C(F)(F)F)=C1C=CC(=N1)C=3C(F)(F)F [AEOL11256]	none of the AEOL compounds tested altered the levels of MPP+					plasma concentration after p.o. administration ([3]; result in words): relatively low
